One test concerns the target T1, KRAS G12C 1-169, his-tagged protein, GDP-loaded (Homo sapiens, UniProt P01116, G12C).
T1 construct: KRAS G12C 1-169, his-tagged protein, GDP-loaded
The test is described as follows: Biochemical assay: covalent binding of compounds to KRAS G12C, analysed by mass spectrometry. As to conditions: binding measured at 30 min (compounds 247-375). The method, then: Compounds were tested for activity as follows:
Compounds were diluted to 50× final test concentration in DMSO in 96-well storage plates. […] Reactions were mixed carefully and thoroughly by pipetting up/down with a 200 μl multi-channel pipettor. The plate was sealed well with aluminum plate seal, and stored in drawer at room temperature for 30 min, 2 hour or 24 hrs. 51 μl of 2% formic acid (Fisher cat # A117) in DI H2O was then added to each well followed by mixing with a pipette. The plate was then resealed with aluminum seal and stored on dry ice until analyzed as described below.
The above described assays were analyzed by mass spectrometry according to the following procedure:
The MS instrument is set to positive polarity, 2 GHz resolution, and low mass (1700) mode and allowed to equilibrate for 30 minutes. The instrument is then calibrated, switched to acquisition mode and the appropriate method loaded.
After another 30 minute equilibration time, a blank batch (i.e., buffer) is run to ensure equipment is operating properly. The samples are thawed at 37° C. for 10 minutes, briefly centrifuged, and transfer to the bench top. Wells A1 and H12 are spiked with 1 uL 500 uM internal standard peptide, and the plates centrifuged at 2000×g for 5 minutes. The method is then run and masses of each individual well recorded.
The masses (for which integration data is desired) for each well are pasted into the platemap and exported from the analysis. Masses for the internal standards are exported as well. The data at 50 ppm is extracted for the +19 charge state, and identity of well A1 is assigned using the internal standard spike and integrated. Peak data is exported as a TOF list and the above steps are repeated individually, for the +20, 21, 22, 23, 24, and 25 charge states.
T1 sequence (P01116 1-169 isoform P01116-2 G12C): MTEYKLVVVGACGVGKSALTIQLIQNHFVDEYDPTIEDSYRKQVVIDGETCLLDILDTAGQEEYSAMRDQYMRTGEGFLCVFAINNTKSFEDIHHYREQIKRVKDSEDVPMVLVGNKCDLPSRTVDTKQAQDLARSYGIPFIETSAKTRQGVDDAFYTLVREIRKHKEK
Consider `C=CC(=O)N1CCN(c2nc(NCCN(C)C)nc3c(F)c(-c4cc(O)cc5ccccc45)c(Cl)cc23)CC1` [Compound 355, 1-(4-(6-chloro-2-(2-(dimethylamino)ethylamino)-8-fluoro-7-(3-hydroxynaphthalen-1-yl)quinazolin-4-yl)piperazin-1-yl)prop-2-en-1-one], for which the Binding % entry was “++++ (++++ indicates binding activity greater than 75%)”.
Still for that read-out and setting: the value for `C=CC(=O)N1CCN(c2nc(OCCN(C)C)nc3c(F)c(-c4c(C)ccc5[nH]ncc45)c(Cl)cc23)CC1C` (stereo not drawn) [Compound 367, 1-(4-(6-chloro-2-(2-(dimethylamino)ethoxy)-8-fluoro-7-(5-methyl-1H-indazol-4-yl)quinazolin-4-yl)-2-methylpiperazin-1-yl)prop-2-en-1-one] was “++++ (++++ indicates binding activity greater than 75%)”.
The same measure, in the same setting: the value for `C=CC(=O)N1CCN(c2cc(=O)[nH]c3cc(-c4c(C)ccc5[nH]ncc45)c(Cl)cc23)CC1` [Compound 326, 4-(4-acryloylpiperazin-1-yl)-6-chloro-7-(5-methyl-1H-indazol-4-yl)quinolin-2(1H)-one] was “+ (+ indicates binding activity from 5% to 25%)”; that for `C=CC(=O)N1CCN(c2nc(CN(C)C)nc3c(F)c(-c4c(C)ccc5[nH]ncc45)c(Cl)cc23)CC1` [Compound 254, 1-(4-(6-chloro-2-((dimethylamino)methyl)-8-fluoro-7-(5-methyl-1H-indazol-4-yl)quinazolin-4-yl)piperazin-1-yl)prop-2-en-1-one] was “+++ (+++ indicates binding activity greater than 50% and up to 75%)”; that for `C=CC(=O)N1CCN(c2cnnc3cc(-c4c(C)ccc5[nH]ncc45)c(C(F)(F)F)cc23)CC1` [Compound 350, 1-(4-(7-(5-methyl-1H-indazol-4-yl)-6-(trifluoromethyl)cinnolin-4-yl)piperazin-1-yl)prop-2-en-1-one] was “++++ (++++ indicates binding activity greater than 75%)”.
On the same count and under the same terms, the value for `C=CC(=O)N1CCN(c2nc(N(C)C)nc3c(F)c(-c4cc(O)cc5ccccc45)c(Cl)cc23)CC1` [Compound 344, 1-(4-(6-chloro-2-(dimethylamino)-8-fluoro-7-(3-hydroxynaphthalen-1-yl)quinazolin-4-yl)piperazin-1-yl)prop-2-en-1-one] was “+++ (+++ indicates binding activity greater than 50% and up to 75%)”.
Regarding `C=CC(=O)N1CCN(c2ncnc3cc(-c4cc(Cl)cc5[nH]ncc45)c(Cl)cc23)CC1` [Compound 266, 1-(4-(6-chloro-7-(6-chloro-1H-indazol-4-yl)quinazolin-4-yl)piperazin-1-yl)prop-2-en-1-one], the Binding % result was “+++ (+++ indicates binding activity greater than 50% and up to 75%)”.
Same read-out and setting: the value for `C=CC(=O)N1CCN(c2nc(OCCN3CCN(C)CC3)nc3c(F)c(-c4c(C)ccc5[nH]ncc45)c(Cl)cc23)CC1` [Compound 373, 1-(4-(6-chloro-8-fluoro-7-(5-methyl-1H-indazol-4-yl)-2-(2-(4-methylpiperazin-1-yl)ethoxy)quinazolin-4-yl)piperazin-1-yl)prop-2-en-1-one] was “+++ (+++ indicates binding activity greater than 50% and up to 75%)”; that for `C=CC(=O)N1CCN(c2ncnc3c(F)c(-c4c(F)cccc4CN(C)C)c(Cl)cc23)CC1` [Compound 362, 1-(4-(6-chloro-7-(2-((dimethylamino)methyl)-6-fluorophenyl)-8-fluoroquinazolin-4-yl)piperazin-1-yl)prop-2-en-1-one] was “++ (++ indicates binding activity greater than 25% and up to 50%)”; that for `C=CC(=O)N1CCN(c2nc(OCCc3nccn3C)nc3c(F)c(-c4c(C)ccc5[nH]ncc45)c(Cl)cc23)CC1` [Compound 369, 1-(4-(6-chloro-8-fluoro-2-(2-(1-methyl-1H-imidazol-2-yl)ethoxy)-7-(5-methyl-1H-indazol-4-yl)quinazolin-4-yl)piperazin-1-yl)prop-2-en-1-one] was “++++ (++++ indicates binding activity greater than 75%)”.
Turning to `C=CC(=O)N1CCN(c2nc(NC3CCN(C)CC3)nc3c(F)c(-c4c(C)ccc5[nH]ncc45)c(Cl)cc23)CC1` [Compound 363, 1-(4-(6-chloro-8-fluoro-7-(5-methyl-1H-indazol-4-yl)-2-(1-methylpiperidin-4-ylamino)quinazolin-4-yl)piperazin-1-yl)prop-2-en-1-one], the Binding % result is on record as “++++ (++++ indicates binding activity greater than 75%)”.
Turning to `C=CC(=O)N1CCN(c2nc(Oc3cnn(C)c3)nc3c(F)c(-c4c(C)ccc5[nH]ncc45)c(Cl)cc23)CC1` [Compound 375, 1-(4-(6-chloro-8-fluoro-7-(5-methyl-1H-indazol-4-yl)-2-(1-methyl-1H-pyrazol-4-yloxy)quinazolin-4-yl)piperazin-1-yl)prop-2-en-1-one], the Binding % result is “+++ (+++ indicates binding activity greater than 50% and up to 75%)”.
For the molecule `C=CC(=O)N1CCN(c2ncnc3c(F)c(-c4cc(O)cc5ccccc45)c(Cl)cc23)CC1CN(C)C` (stereo not drawn) [Compound 346, 1-(4-(6-chloro-8-fluoro-7-(3-hydroxynaphthalen-1-yl)quinazolin-4-yl)-2-((dimethylamino)meth-yl)piperazin-1-yl)prop-2-en-1-one], the Binding % entry is listed as “++++ (++++ indicates binding activity greater than 75%)”.
Consider `C=CC(=O)N1CCN(c2nc(NCC(F)(F)F)nc3c(F)c(-c4c(C)ccc5[nH]ncc45)c(Cl)cc23)CC1` [Compound 356, 1-(4-(6-chloro-8-fluoro-7-(5-methyl-1H-indazol-4-yl)-2-(2,2,2-trifluoroethylamino)quinazolin-4-yl)piperazin-1-yl)prop-2-en-1-one], for which the Binding % entry is “+++ (+++ indicates binding activity greater than 50% and up to 75%)”.
Regarding `C=CC(=O)N1CCN(c2nc(NC)nc3c(F)c(-c4cc(O)cc5ccccc45)c(Cl)cc23)CC1` [Compound 345, 1-(4-(6-chloro-8-fluoro-7-(3-hydroxynaphthalen-1-yl)-2-(methylamino)quinazolin-4-yl)piperazin-1-yl)prop-2-en-1-one], the Binding % entry is “++++ (++++ indicates binding activity greater than 75%)”.
Same read-out and setting: the value for `C=CC(=O)N1CCN(c2nc(NC3CCOCC3)nc3c(F)c(-c4c(C)ccc5[nH]ncc45)c(Cl)cc23)CC1` [Compound 365, 1-(4-(6-chloro-8-fluoro-7-(5-methyl-1H-indazol-4-yl)-2-(tetrahydro-2H-pyran-4-ylamino)quinazolin-4-yl)piperazin-1-yl)prop-2-en-1-one] was “++++ (++++ indicates binding activity greater than 75%)”; that for `C=CC(=O)N1CCN(c2nc(NC3CCN(C)C3)nc3c(F)c(-c4cc(O)cc5ccccc45)c(Cl)cc23)CC1` (stereo not drawn) [Compound 360, 1-(4-(6-chloro-8-fluoro-7-(3-hydroxynaphthalen-1-yl)-2-(1-methylpyrrolidin-3-ylamino)quinazolin-4-yl)piperazin-1-yl)prop-2-en-1-one] was “++++ (++++ indicates binding activity greater than 75%)”.

The test is the same for the next values; noted with them: binding measured at 2 h (compounds 48-246).
In the case of `C#Cc1cnc2cc(-c3ccccc3F)c(Cl)cc2c1N1CCN(C(=O)C=C)CC1` [Compound 215, 1-(4-(6-chloro-3-ethynyl-7-(2-fluorophenyl)quinolin-4-yl)piperazin-1-yl)prop-2-en-1-one], the Binding % entry was “++ (++ indicates binding activity greater than 25% and up to 50%)”.
The same measure, in the same setting: the value for `C=CC(=O)N1CCN(c2ncnc3cc(-c4c(O)cccc4F)c(Cl)cc23)CC1` [Compound 138, 1-(4-(6-chloro-7-(2-fluoro-6-hydroxyphenyl)quinazolin-4-yl)piperazin-1-yl)prop-2-en-1-one] was “++++ (++++ indicates binding activity greater than 75%)”; that for `C=CC(=O)N1CCN(c2ncnc3cc(N4CCCCC4)c(Cl)cc23)CC1` [Compound 80, 1-(4-(6-chloro-7-(piperidin-1-yl)quinazolin-4-yl)piperazin-1-yl)prop-2-en-1-one] was “+ (+ indicates binding activity from 5% to 25%)”; that for `C=CC(=O)N1CCN(c2ncnc3cc(-c4ccc(F)cc4C(F)(F)F)c(Cl)cc23)CC1` [Compound 119, 1-(4-(6-chloro-7-(4-fluoro-2-(trifluoromethyl)phe-nyl)quinazolin-4-yl)piperazin-1-yl)prop-2-en-1-one] was “+++ (+++ indicates binding activity greater than 50% and up to 75%)”.
The same measure, in the same setting: the value for `C=CC(=O)N1CCN(c2cnnc3cc(-c4ccccc4F)c(Cl)cc23)CC1` [Compound 159, 1-(4-(6-chloro-7-(2-fluorophenyl)cinnolin-4-yl)piperazin-1-yl)prop-2-en-1-one] was “+++ (+++ indicates binding activity greater than 50% and up to 75%)”.

The test is the same for the next values; noted with them: binding measured at 24 h (compounds 1-47).
On to `C=CC(=O)N1CCN(c2nc(N)nc3cc(Cl)c(-c4ccc(Cl)cc4)cc23)CC1` [Compound 39, 1-(4-(2-amino-7-chloro-6-(4-chlorophenyl)quinazolin-4-yl)piperazin-1-yl)prop-2-en-1-one], for which the Binding % entry was “+ (+ indicates binding activity from 5% to 25%)”.
Regarding `C=CC(=O)N1CCN(c2nccc3cc(Cl)c(-c4ccc(Cl)cc4O)cc23)CC1` [Compound 38, 1-(4-(6-chloro-7-(4-chloro-2-hydroxyphenyl)isoquinolin-1-yl)piperazin-1-yl)prop-2-en-1-one], the Binding % entry was “++ (++ indicates binding activity greater than 25% and up to 50%)”.
